These results are taken from PubChem BioAssay (NCI).

Each structure is given as a SMILES string. “And” between values parts separate entries of the source, which are not always exact repeats. Identical values can stand only once.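 Where inhibition never reached the appropriate level, the endpoint shown equals the highest concentration tested. Otherwise, values were interpolated linearly from a five-concentration, 48-hour dose response in 96-well plates. At the GI50, growth is halved. TGI is the concentration that stops growth completely.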

Among the test systems are XF 498 CNS; LXFL 529 NSCLC; RXF-631 renal; DLD-1 colon; SNB-78 CNS; DMS 273 small cell lung; HOP-18 NSCLC; P388/ADR leukemia; SN12K1 renal; P388 leukemia.
Assay in all cases: NCI tumour cell line growth inhibition, 48 h

In the case of `O=C1NC2(CCCCC2)C2CCCCCC12` (centres undefined), the TGI with XF 498 CNS, in the experiment with LXFL 529 NSCLC, in the experiment on RXF-631 renal, with DLD-1 colon and in the experiment on SNB-78 CNS was over 100 µM throughout.

Regarding `c1ccc2c(c1)nc(NC1CCCC1)c1[nH]c(C3CCCC3)nc12`, the TGI in the experiment with XF 498 CNS is 34.4 µM; in the experiment with LXFL 529 NSCLC it was 22.8 µM; with DLD-1 colon, over 100 µM; in the experiment with DMS 273 small cell lung, 22.3 µM; in the experiment with SNB-78 CNS, over 92.7 µM; in the experiment on HOP-18 NSCLC, 45.5 µM.

With `NC(=O)C#CC(N)=O`, the TGI in the experiment with LXFL 529 NSCLC is over 100 µM; in the experiment on RXF-631 renal, over 100 µM; with P388/ADR leukemia, 875 µM; in the experiment with SN12K1 renal, 27.4 µM and 26.7 µM; in the experiment on DLD-1 colon it was 87.5 µM and 68.3 µM and > 100 µM; in the experiment on DMS 273 small cell lung, 73.1 µM and 106 µM and > 100 µM. In addition, the TGI in the experiment with SNB-78 CNS was 72.3 µM and 202 µM and > 100 µM; in the experiment with HOP-18 NSCLC, 43.5 µM and 33.2 µM. For the same compound, the GI50 in the experiment with SN12K1 renal was 14.8 µM; in the experiment on DLD-1 colon, 26.5 µM and 22.2 µM and 62.5 µM; in the experiment with DMS 273 small cell lung it was 23.5 µM and 30.5 µM and > 100 µM; in the experiment with SNB-78 CNS, 22.5 µM and 121 µM.

Consider `CN(C)CCSC(=Nc1ccccc1)N1CCCCC1`, for which the TGI with XF 498 CNS was 30 µM; with LXFL 529 NSCLC, 29.4 µM; in the experiment on DLD-1 colon it was 31.5 µM; with DMS 273 small cell lung, 31.1 µM; in the experiment on HOP-18 NSCLC, 33.5 µM.

Regarding `Cc1cccc(NC(=O)C(=O)C(C(=O)c2ccccc2F)C2OC(=O)c3ccccc32)c1Cl` (centres undefined), the TGI in the experiment on XF 498 CNS, with LXFL 529 NSCLC, in the experiment with DLD-1 colon, in the experiment on DMS 273 small cell lung and with SNB-78 CNS was over 100 µM throughout.

On to `c1ccc2c(c1)CCc1cc3cc4c(nc3nc1-2)-c1ccccc1CC4`, for which the TGI with LXFL 529 NSCLC, in the experiment with DLD-1 colon, in the experiment on DMS 273 small cell lung and with SNB-78 CNS was over 100 µM each time.

`N#C[S-].[Nd+3].c1ccc(-c2ccccn2)nc1.c1ccc(-c2ccccn2)nc1.c1ccc(-c2ccccn2)nc1`: the GI50 in the experiment with DLD-1 colon is 3.45 µM; with DMS 273 small cell lung, 3.23 µM; with SNB-78 CNS it was 94.2 µM. Besides, the TGI is over 100 µM with DLD-1 colon, 19.5 µM with DMS 273 small cell lung and over 100 µM in the experiment on SNB-78 CNS.

On to `O=[Se](=O)c1ccccc1.O=[Se](=O)c1ccccc1.[Cu]`, for which the GI50 is 15.5 µM with XF 498 CNS; 3.99 µM with P388/ADR leukemia; 7.41 µM in the experiment with SN12K1 renal; 18.9 µM in the experiment on DLD-1 colon; 20.4 µM in the experiment with DMS 273 small cell lung; 12.4 µM in the experiment with SNB-78 CNS. Moreover, the GI50 with P388 leukemia was 5.23 µM; in the experiment with HOP-18 NSCLC it was 23.4 µM. In addition, the TGI in the experiment with XF 498 CNS turned out to be 28.9 µM; in the experiment with P388/ADR leukemia, 24.4 µM; in the experiment with SN12K1 renal, 17.6 µM; in the experiment with DLD-1 colon it was 40.5 µM; in the experiment with DMS 273 small cell lung, 38.3 µM; in the experiment with SNB-78 CNS, 17.1 µM. Besides, the TGI in the experiment with P388 leukemia was 29 µM; in the experiment on HOP-18 NSCLC, 41.1 µM.
